# Measurements as given in patent publication US20250017211A1, “SOLID P[…] CONTROL COMPOSITIONS AND METHODS” (Control Solutions, Inc., priority 2021, published 2025).
# What was measured:
# [1] = test system: white grubs (Japanese beetles and masked chafers); test: Preventive control of white grubs in Kentucky bluegrass, second study; format: in vivo, scarab beetle larvae; details: instant (second) study
# Method: As with the study of Example 5 above, the purpose of this study was to evaluate rates and timings of novaluron and a wetting agent (Syringe) for controlling white grubs in turfgrass. A trial was conducted on Kentucky bluegrass maintained at a height of 7.6 cm. A randomized complete block design with 4 replications of 5′×5′ plots were used. Treatments were applied and all plots were watered in (0.1″) immediately after application. Treatments and application dates were as described in Table 4. Caged Japanese beetle adults (20 male: 20 female) were placed within each plot. Plots were assessed using a sod cutter set to 3″ depth. All scarab beetle larvae recovered were identified to genus level.
# [2] = test system: all white grubs (scarab larvae); test: Preventive control of scarab larvae in Kentucky bluegrass, first study, all white grubs; format: in vivo, scarab beetle larvae; details: study of Example 5
# Description: The primary objectives of this study were to evaluate the influence of application rate and timing on the efficacy of novaluran applied preventively against scarab larvae in cool-season turfgrass. The experiment was located on a stand of turfgrass consisting primarily of Kentucky bluegrass maintained at 7.6 cm. Plots measuring 5×5 ft were arranged in a randomized complete-block design with 2 ft alleys between plots. […] Each treatment was replicated 4 times. Plots were irrigated Immediately after each set of applications (0.1″).
# Japanese beetle larval infestations were created by driving two, 20.3 cm diameter PVC cylinders into each plot along its mid-line and caging one group of 40 Japanese beetle adults (50:50 sex ratio) within each cylinder during early July. Scarab larval populations were assessed Oct. 12-16, 2019 using a sod cutter to remove a strip of sod lying directly beneath the caging area of each plot and examining the soil to a depth of 3 inches. All scarab larvae recovered from the plots were identified to genus level, counted and recorded. Variation in scarab larval populations was examined using main effects ANOVA and treatment means were compared using Fisher's LSD test (α=0.05). Treatments and application dates were as described in Table 3.
structure (smiles),measurement,setting,value
"O=C(NC(=O)c1c(F)cccc1F)Nc1ccc(OC(F)(F)C(F)OC(F)(F)F)c(Cl)c1 (stereo not shown) [Novaluron, novaluron]",Control,[1]; 0.675 lb ai/A,84-90%
same,Control,[1]; 0.9 lb ai/A,84-90%
same,Control,[2]; 0.675 lb ai/A,46-72%
same,Control,[2]; 0.9 lb ai/A,45-56%
